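Step 1: Grow cells in 96-well plates. Step 2: Expose to compound for 48 hours at 5 concentrations. Step 3: Interpolate endpoints linearly; if unreached, use highest concentration. GI50 is the concentration that inhibits growth by half. TGI: total growth inhibition.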
How the values were obtained:
Assay in all cases: NCI-60 cell line screen, 48 h; in the data active = GI50 below about 0.43 µM; inactive = the rest
UACC-62 melanoma = tested on: UACC-62 melanoma
KM12 colon = tested on: KM12 colon
SF-295 CNS = tested on: SF-295 CNS
COLO 205 colon = tested on: COLO 205 colon
UO-31 renal = tested on: UO-31 renal
T-47D breast = tested on: T-47D breast
MCF7 breast = tested on: MCF7 breast
UACC-257 melanoma = tested on: UACC-257 melanoma
U251 CNS = tested on: U251 CNS
A498 renal = tested on: A498 renal
HS 578T breast = tested on: HS 578T breast
SN12C renal = tested on: SN12C renal
HCT-15 colon = tested on: HCT-15 colon
IGROV1 ovarian = tested on: IGROV1 ovarian
RXF 393 renal = tested on: RXF 393 renal
TK-10 renal = tested on: TK-10 renal
CAKI-1 renal = tested on: CAKI-1 renal
SK-MEL-2 melanoma = tested on: SK-MEL-2 melanoma
NCI-H522 lung = tested on: NCI-H522 lung
MDA-MB-435 = tested on: MDA-MB-435
SK-OV-3 ovarian = tested on: SK-OV-3 ovarian
OVCAR-4 ovarian = tested on: OVCAR-4 ovarian
MDA-MB-231 breast = tested on: MDA-MB-231 breast
DU-145 prostate = tested on: DU-145 prostate
A549 NSCLC = tested on: A549 NSCLC
PC-3 prostate = tested on: PC-3 prostate
SK-MEL-28 melanoma = tested on: SK-MEL-28 melanoma
HOP-92 NSCLC = tested on: HOP-92 NSCLC
CCRF-CEM leukemia = tested on: CCRF-CEM leukemia
HT29 colon = tested on: HT29 colon
NCI/ADR-RES ovarian = tested on: NCI/ADR-RES ovarian
HOP-62 NSCLC = tested on: HOP-62 NSCLC
OVCAR-8 ovarian = tested on: OVCAR-8 ovarian
HCC-2998 colon = tested on: HCC-2998 colon
MOLT-4 leukemia = tested on: MOLT-4 leukemia
K-562 leukemia = tested on: K-562 leukemia
EKVX NSCLC = tested on: EKVX NSCLC
SNB-19 CNS = tested on: SNB-19 CNS
LOX IMVI melanoma = tested on: LOX IMVI melanoma
MALME-3M melanoma = tested on: MALME-3M melanoma
NCI-H23 lung = tested on: NCI-H23 lung
SK-MEL-5 melanoma = tested on: SK-MEL-5 melanoma
RPMI-8226 leukemia = tested on: RPMI-8226 leukemia
786-0 renal = tested on: 786-0 renal
M14 melanoma = tested on: M14 melanoma
ACHN renal = tested on: ACHN renal
NCI-H226 lung = tested on: NCI-H226 lung
HL-60(TB) leukemia = tested on: HL-60(TB) leukemia
OVCAR-3 ovarian = tested on: OVCAR-3 ovarian
OVCAR-5 ovarian = tested on: OVCAR-5 ovarian
SR leukemia = tested on: SR leukemia
HCT-116 colon = tested on: HCT-116 colon
SF-539 CNS = tested on: SF-539 CNS
SW-620 colon = tested on: SW-620 colon
NCI-H460 lung = tested on: NCI-H460 lung

CC(=O)[C@@H]1CCC=C2CC[C@]3(C)[C@@H](CC[C@@H]4[C@@]5(C)CCCNC(C)(C)[C@@H]5CC[C@]43C)[C@H]21
3.69 µM: TGI (SK-MEL-2 melanoma)
3.22 µM: TGI (CAKI-1 renal)
3.49 µM: TGI (MDA-MB-435)
3.45 µM: TGI (TK-10 renal)
5.63 µM: TGI (CCRF-CEM leukemia)
3.39 µM: TGI (OVCAR-4 ovarian)
3.4 µM: TGI (HOP-62 NSCLC)
2.77 µM: TGI (HOP-92 NSCLC)
3.31 µM: TGI (SN12C renal)
3.06 µM: TGI (PC-3 prostate)
4.29 µM: TGI (UACC-257 melanoma)
3.73 µM: TGI (A549 NSCLC)
3.33 µM: TGI (DU-145 prostate)
4.39 µM: TGI (HS 578T breast)
3.6 µM: TGI (KM12 colon)
2.89 µM: TGI (UO-31 renal)
2.79 µM: TGI (COLO 205 colon)
2.92 µM: TGI (MCF7 breast)
3.32 µM: TGI (RXF 393 renal)
3.37 µM: TGI (SK-OV-3 ovarian)
3.28 µM: TGI (IGROV1 ovarian)
2.84 µM: TGI (HCT-15 colon)
3.8 µM: TGI (NCI/ADR-RES ovarian)
3.79 µM: TGI (A498 renal)
3.47 µM: TGI (T-47D breast)
3.16 µM: TGI (UACC-62 melanoma)
3.5 µM: TGI (NCI-H522 lung)
3.27 µM: TGI (U251 CNS)
3.94 µM: TGI (OVCAR-8 ovarian)
inactive: GI50 (UACC-62 melanoma) 1.73 µM | GI50 (KM12 colon) 1.93 µM | GI50 (SF-295 CNS) 1.81 µM | GI50 (COLO 205 colon) 1.38 µM | GI50 (UO-31 renal) 1.52 µM | GI50 (T-47D breast) 1.72 µM | GI50 (MCF7 breast) 1.37 µM | GI50 (UACC-257 melanoma) 2.19 µM | GI50 (U251 CNS) 1.76 µM | GI50 (A498 renal) 2.03 µM | GI50 (HS 578T breast) 1.87 µM | GI50 (SN12C renal) 1.79 µM | GI50 (HCT-15 colon) 1.44 µM | GI50 (IGROV1 ovarian) 1.69 µM | GI50 (RXF 393 renal) 1.74 µM | GI50 (TK-10 renal) 1.88 µM | GI50 (CAKI-1 renal) 1.81 µM | GI50 (SK-MEL-2 melanoma) 2.01 µM | GI50 (NCI-H522 lung) 1.93 µM | GI50 (MDA-MB-435) 1.87 µM | GI50 (SK-OV-3 ovarian) 1.81 µM | GI50 (OVCAR-4 ovarian) 1.86 µM | GI50 (MDA-MB-231 breast) 1.81 µM | GI50 (DU-145 prostate) 1.77 µM | GI50 (A549 NSCLC) 2.02 µM | GI50 (PC-3 prostate) 1.65 µM | GI50 (SK-MEL-28 melanoma) 1.81 µM | GI50 (HOP-92 NSCLC) 1.37 µM | GI50 (CCRF-CEM leukemia) 2.27 µM | GI50 (HT29 colon) 1.2 µM | GI50 (NCI/ADR-RES ovarian) 1.98 µM | GI50 (HOP-62 NSCLC) 1.82 µM | GI50 (OVCAR-8 ovarian) 1.99 µM
3.26 µM: TGI (SF-295 CNS)
3.35 µM: TGI (MDA-MB-231 breast) | TGI (SK-MEL-28 melanoma)
2.58 µM: TGI (HT29 colon)

O=C(N=C1SCCN1C(=O)C(C(F)(F)F)C(F)(F)F)C(C(F)(F)F)C(F)(F)F
> 100 µM: TGI (HCC-2998 colon) | TGI (MOLT-4 leukemia) | TGI (K-562 leukemia) | TGI (SF-295 CNS) | TGI (EKVX NSCLC) | TGI (SNB-19 CNS) | TGI (COLO 205 colon) | TGI (LOX IMVI melanoma) | TGI (MALME-3M melanoma) | TGI (UO-31 renal) | TGI (NCI-H23 lung) | TGI (MCF7 breast) | TGI (UACC-257 melanoma) | TGI (U251 CNS) | TGI (A498 renal) | TGI (SK-MEL-5 melanoma) | TGI (RPMI-8226 leukemia) | TGI (HCT-15 colon) | TGI (786-0 renal) | TGI (M14 melanoma) | TGI (ACHN renal) | TGI (IGROV1 ovarian) | TGI (RXF 393 renal) | TGI (TK-10 renal) | TGI (CAKI-1 renal) | TGI (SK-MEL-2 melanoma) | TGI (NCI-H522 lung) | TGI (MDA-MB-435) | TGI (SK-OV-3 ovarian) | TGI (OVCAR-4 ovarian) | TGI (MDA-MB-231 breast) | TGI (A549 NSCLC) | TGI (NCI-H226 lung) | TGI (HL-60(TB) leukemia) | TGI (OVCAR-3 ovarian) | TGI (OVCAR-5 ovarian) | TGI (PC-3 prostate) | TGI (SK-MEL-28 melanoma) | TGI (HOP-92 NSCLC) | TGI (CCRF-CEM leukemia) | TGI (HT29 colon) | TGI (NCI/ADR-RES ovarian) | TGI (SR leukemia) | TGI (HCT-116 colon) | TGI (SF-539 CNS) | TGI (HOP-62 NSCLC) | TGI (OVCAR-8 ovarian) | TGI (SW-620 colon) | TGI (NCI-H460 lung)

— PubChem BioAssay (NCI)
